Reference: patent US7094801B2, “Chalcone derivatives and their use to treat diseases” (Atherogenics, Inc., priority 2001, dated 2006)

Assays:
IL-5 mRNA = IL-5 mRNA in mouse lungs, ovalbumin sensitization and challenge (real-time PCR); type: in vivo; conditions: 100 mg/kg/d, compared with vehicle treated mice
Protocol: (§1) Lung tissues were collected from ovalbumin (Calbiochem) or vehicle (2% Cremophor/Bicarbonate) sensitized Balb/c mice (Charles River) with or without treatment of test compound (100 mg/kg/d, from day 0 to day 14). Total RNA samples were isolated by the Trizol method (Life Technologies, Grand Island, N.Y.) and quantitatively measured by UV spectrophotometer, as well as qualitatively examined by ethidum bromide stained gel electrophoresis. First strand cDNA templates were generated with oligo (dT) by Reverse Transcription Kit (Invitrogen, Carlsbad, Calif.). The initial amounts of mRNA of each samples were quantitatively determined by running a SYBR Green (Qiagen, Valencia, Calif.) based real-time PCR (programmed as: initial denaturation at 95° C. for 15 minutes, denaturation at 95° C. for 15 seconds, annealing and elongation at 51±1° C. for 1 minute for total 40 cycles) with a specific pair of primers (IDT Corporation, Coralville, Iowa) and control primers for GAPDH in iCycler IQ Optical System (Hercules, Calif.). The data were statistically analyzed by ANOVA and t-tests with multiple comparisons of means (n=5 and P<0.05 were considered significant).

VCAM-1 mRNA = assay: Lung VCAM-1 mRNA levels in LPS-challenged mice (quantitative RT-PCR); type: in vivo, mouse; conditions: subcutaneously 100 mg/kg/d, 2 hr prior to LPS injection (1 mg/kg), compared with vehicle controls
Protocol: (§2) Balb/C mice (6–8 weeks) were injected with LPS (1 mg/kg; 5 mls/kg) and sacrificed 2 hr later. Blood was collected for plasma TNF-α levels and lungs for measurement of VCAM-1 mRNA levels by quantitative RT-PCR. Compound 3 administered subcutaneously at a dose of 100 mg/kg/d, 2 hr prior to LPS injection, inhibited TNF-α production by 80% and VCAM-1 expression by 60% compared with vehicle controls.

IFN-gamma mRNA = IFN-gamma mRNA in mouse lungs, ovalbumin sensitization and challenge (real-time PCR); type: in vivo; conditions: 100 mg/kg/d, compared with vehicle treated mice
Protocol: as §1

IL-1β = assay: LPS-stimulated IL-1β secretion in human peripheral blood mononuclear cells; type: cell-based; conditions: PBMC; for Percent IL-1β Secreted: LPS (1–2 μg/ml) 3 hours
Protocol: Human peripheral blood mononuclear cells were treated with or without Compound 3 for 1 hour, then stimulated with LPS (1–2 μg/ml) for 3 hours. Condition media was collected and IL-1β measured using an ELISA kit. […] See Biological Table 4

IL-13 mRNA = IL-13 mRNA in mouse lungs, ovalbumin sensitization and challenge (real-time PCR); type: in vivo; conditions: 100 mg/kg/d, compared with vehicle treated mice
Protocol: as §1

MCP-1 = assay: In Vitro MCP-1 Activity Assay; type: cell-based; conditions: Endothelial cell; human endothelial cells, TNF-α (1 ng/ml), approximately 16 hours; read-out: IC50 (amount of compound required to achieve a 50% reduction compared to control), MCP-1
Protocol: Cultured human endothelial cells were seeded in 96-well plates. On the following day cells were stimulated with TNF-α (1 ng/ml) in the presence or absence of compounds dissolved in DMSO. To establish a dose curve and an IC50, multiple concentrations in 2- to 5-fold increments were used. Cells were exposed to TNF-α and compounds for approximately 16 hours. The next day the cells were visually examined via light microscopy to score for visual signs of toxicity. Cell culture media, diluted 1:10, was analyzed by an MCP-1 immunoassay kit (R & D Systems). This assay is a sandwich immunoassay using immobilized anti-MCP-1 antibody in 96-well plate to capture secreted MCP-1 in cell culture media. Captured MCP-1 was subsequently detected with a horse radish peroxidase-conjugated anti-MCP-1 antibody for color development. Compound 3 expressed an IC50 values of >10(the amount of compound (μM) required to achieve a 50% reduction compared to control (cells stimulated with TNF-α only)).

[1] = tested on: Human Aortic Smooth Mucle Cells (HAoSMC); assay: Smooth Muscle Cell Proliferation Protocol (3H-thymidine incorporation); type: cell-based; conditions: HAoSMC stimulated by 5% serum
Protocol: Human Aortic Smooth Mucle Cells (HAoSMC) were obtained from Clonetics, Inc. and were used below passage 10. Cells were seeded in 24-well plates. When cells were 80% confluent, they were made quiescent by adding media containing 0.2% serum (as compared to 5% serum in normal culture media) for 48 hours. The cells were, then, stimulated by 5% serum in the presence or absence of compounds dissolved in DMSO. […] Rapamycin (at 1 and 0.1 μM) was used as a positive control for the assay. After a 20 hour incubation with or without test compounds, 3H-thymidine (0.5 μCi/well) was added to the cells for 4 hours of labeling. Washed cells were then lysed in NaOH and the amount of 3H-thymidine incorporation was determined. Cytotoxicity of the drug was measured by use of the CytolTox 96 assay kit (Promega, Madison, Wis.).

[2] = tested on: rat adjuvant arthritis model; assay: DMARD activity in rat adjuvant arthritis (bone erosion, splenomegaly); type: in vivo
Protocol: Male Lewis rats (150–175 g) from Charles River Laboratories were anesthetized on day 0 with 3–5% isoflurane anesthesia while the tail base was shaved and adjuvant mixture was injected. Fifty μL of adjuvant (10 mg/ml M. butyricum in mineral oil) was injected subcutaneously into two sites at the tail base. Paw swelling was monitored using a plethysmometer (UGO Basile), after shaving each leg to the level of the Achilles tendon to mark the level of immersion. A baseline paw measurement for both hindpaws was taken between d2-d5 and a second measurement was taken on day 7–8. Onset of paw swelling occurred rapidly between d9–11 and daily measurements were performed every weekday between d9 and day 15. Compounds of the invention and vehicles were dosed either prophylactically (d1–14), or therapeutically (d9–14) after swelling was confirmed. Solutions were injected subcutaneously or given orally by gavage 1–2 times per day. From day 0, rats were weighed every 2–3 days and overall health was monitored. Plasma drug levels, if desired, were measured in tail-vein derived blood samples taken on day 14. On day 15, blood samples were obtained by cardiac puncture, rats were euthanized with CO2, selected organs removed and both hindpaws were amputated and placed in 10% buffered formalin for histopathological analysis. See Biological Table 2. […]

IgE = assay: Serum IgE levels in ovalbumin sensitized Balb/c mice; type: in vivo, mouse; conditions: 100 mg/kg/d from day 0 to day 14, compared with vehicle treated mice
Protocol: Peripheral blood samples were collected from ovalbumin (Calbiochem) or vehicle (2% Cremophor/Bicarbonate) treated Balb/c mice (Charles River) with or without administration of test compound (100 mg/kg/d, from day 0 to day 14). Serum was obtained by centrifugation and transferred into Microtainer serum tubes and frozen at −80° C. Mouse IgE ELISA Quantitation Kit (Bethyl Laboratories, Inc. Montgomery, Tex. or PharMingen, San Diego, Calif.) was applied to measure the IgE levels of serum samples. Immuno-reactions were performed as Kit protocol with IgE standard and serum samples in duplicates. The results were read in a microplate reader (Bio-Rad Model 550) at 450 nm and the amounts of IgE were calculated according to the standard curve. The limit of detection in our experiments was 7 ng/ml. Compound 3 administrated at 100 mg/kg/d from day 0 to day 14, reduced serum IgE levels by 38% in ovalbumin sensitized Balb/c mice compared with vehicle treated mice.

IL-4 mRNA = IL-4 mRNA in mouse lungs, ovalbumin sensitization and challenge (real-time PCR); type: in vivo; conditions: 100 mg/kg/d, compared with vehicle treated mice
Protocol: as §1

TNF-α = assay: Plasma TNF-α levels in LPS-challenged mice; type: in vivo, mouse; conditions: subcutaneously 100 mg/kg/d, 2 hr prior to LPS injection (1 mg/kg), compared with vehicle controls
Protocol: as §2

IL-2 mRNA = IL-2 mRNA in mouse lungs, ovalbumin sensitization and challenge (real-time PCR); type: in vivo; conditions: 100 mg/kg/d, compared with vehicle treated mice
Protocol: as §1

Structure (SMILES): COc1cc(OC)c(-c2cc3ccccc3s2)cc1/C=C/C(=O)c1ccc(C(=O)O)cc1 [Compound 3]
- inhibition of ovalbumin induced IL-5 mRNA in the lung (IL-5 mRNA): 98%
- inhibition of VCAM-1 expression (lung mRNA) (VCAM-1 mRNA): 60%
- effect on IFN-gamma mRNA in the lung (IFN-gamma mRNA): without significantly affecting
- Percent IL-1β Secreted (IL-1β; 1.25 μM): >40%
- Percent IL-1β Secreted (IL-1β; 2.5 μM): >10%
- Percent IL-1β Secreted (IL-1β; 5 μM): >5%
- Percent IL-1β Secreted (IL-1β; 10 μM): >1%
- inhibition of LPS-stimulated IL-1β secretion (IL-1β; 1 hour pretreatment, LPS 3 hours): dose dependent inhibition
- inhibition of ovalbumin induced IL-13 mRNA in the lung (IL-13 mRNA): 82%
- IC50 (MCP-1): > 10 µM
- IC50 [1]: 0.5 µM
- splenomegaly ([2]; prophylactically, 100, 50 and 25 mg/kg/d, b.i.d., s.c.): inhibit splenomegaly
- bone erosion in the ankle joint by histopathological analysis ([2]; twice daily subcutaneous doses of 60, 40 and 20 mg/kg/d, prophylactically): inhibit bone erosion
- reduction of serum IgE levels (IgE): 38%
- inhibition of ovalbumin induced IL-4 mRNA in the lung (IL-4 mRNA): 68%
- inhibition of TNF-α production (plasma) (TNF-α): 80%
- effect on IL-2 mRNA in the lung (IL-2 mRNA): without significantly affecting
